Consider 7 compounds from ChEMBL document CHEMBL4364351, “PROTAC Degradation of Bromodomain for the Treatment of Hyperplasia and Cancer” (ACS Med Chem Lett, 2019).

Format in all cases: cell-based
In experiment [1] the target is Protein cereblon/Serine/threonine-protein kinase TBK1 (Homo sapiens) (UniProt Q9UHD2+Q96SW2). In words: Protac activity at CRBN/TBK1 in human Panc02.13 cells assessed as TBK1 degradation at 0.1 to 1 uM after 16 hrs by Western blot analysis relative to control. A general note: A western blot detects proteins with antibodies after separation by electrophoresis.
Experiment [2] addresses Protein cereblon/Steroid hormone receptor ERR1 (Homo sapiens) (UniProt P11474+Q96SW2). In words: Protac activity at CRBN/ERRalpha in human NAMALWA cells assessed as ERRalpha degradation at 0.1 to 1 uM after 16 hrs by Western blot analysis relative to control.
Experiment [3] addresses Protein cereblon/Bromodomain-containing protein 4 (Homo sapiens, UniProt O60885+Q96SW2). In words: Protac activity at CRBN/BRD4 in human 22Rv1 cells assessed as c-MYC degradation after 18 hrs by ELISA. (In general: In an ELISA, binding on a coated surface is turned into a signal by an enzyme label.)
For experiment [4], the target named is Protein cereblon/Androgen receptor (Homo sapiens) (UniProt P10275+Q96SW2). In words: Protac activity at CRBN/AR in human VCaP cells assessed as AR degradation at 0.0001 to 1 uM after 16 hrs by sandwich ELISA relative to control.
Chain of Protein cereblon/Androgen receptor (Homo sapiens) (P10275 whole entry, looked up): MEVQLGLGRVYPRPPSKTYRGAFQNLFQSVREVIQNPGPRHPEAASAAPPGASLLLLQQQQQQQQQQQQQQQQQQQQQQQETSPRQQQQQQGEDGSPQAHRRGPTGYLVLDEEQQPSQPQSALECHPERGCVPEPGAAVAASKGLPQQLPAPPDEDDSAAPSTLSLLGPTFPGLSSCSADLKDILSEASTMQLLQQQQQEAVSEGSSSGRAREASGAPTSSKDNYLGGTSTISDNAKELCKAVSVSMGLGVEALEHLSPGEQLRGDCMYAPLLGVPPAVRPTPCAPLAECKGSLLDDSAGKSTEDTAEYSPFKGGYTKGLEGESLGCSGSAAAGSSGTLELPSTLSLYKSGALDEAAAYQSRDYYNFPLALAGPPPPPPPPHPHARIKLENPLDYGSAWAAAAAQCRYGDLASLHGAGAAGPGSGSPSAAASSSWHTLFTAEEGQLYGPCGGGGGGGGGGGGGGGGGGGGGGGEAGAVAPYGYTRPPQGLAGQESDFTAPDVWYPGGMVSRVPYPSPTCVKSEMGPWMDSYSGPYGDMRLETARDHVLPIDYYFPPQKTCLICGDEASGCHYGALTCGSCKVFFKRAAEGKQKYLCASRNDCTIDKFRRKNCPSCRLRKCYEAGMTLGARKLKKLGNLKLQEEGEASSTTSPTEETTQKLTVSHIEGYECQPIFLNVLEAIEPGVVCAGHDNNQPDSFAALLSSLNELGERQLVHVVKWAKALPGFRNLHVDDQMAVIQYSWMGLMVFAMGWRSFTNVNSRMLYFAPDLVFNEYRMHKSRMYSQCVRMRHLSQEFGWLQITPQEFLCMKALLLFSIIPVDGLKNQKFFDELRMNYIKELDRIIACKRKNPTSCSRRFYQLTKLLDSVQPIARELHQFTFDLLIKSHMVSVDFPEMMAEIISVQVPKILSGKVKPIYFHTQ
Chain of Protein cereblon/Androgen receptor (Homo sapiens) (Q96SW2 whole entry, looked up): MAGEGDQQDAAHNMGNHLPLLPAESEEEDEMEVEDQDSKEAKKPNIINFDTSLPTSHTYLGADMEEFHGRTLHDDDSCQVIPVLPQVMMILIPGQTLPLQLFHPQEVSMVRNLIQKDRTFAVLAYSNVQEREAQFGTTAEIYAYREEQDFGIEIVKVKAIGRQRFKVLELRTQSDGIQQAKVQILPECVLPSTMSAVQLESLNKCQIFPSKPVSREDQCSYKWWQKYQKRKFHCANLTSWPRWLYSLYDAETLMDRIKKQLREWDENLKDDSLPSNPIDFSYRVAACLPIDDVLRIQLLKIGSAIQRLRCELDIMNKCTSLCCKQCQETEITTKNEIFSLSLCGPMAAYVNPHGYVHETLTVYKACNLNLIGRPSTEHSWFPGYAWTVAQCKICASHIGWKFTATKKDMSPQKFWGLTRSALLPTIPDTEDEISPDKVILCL

Chain of Protein cereblon/Serine/threonine-protein kinase TBK1 (Homo sapiens) (Q96SW2 whole entry, looked up): as above
Chain of Protein cereblon/Serine/threonine-protein kinase TBK1 (Homo sapiens) (Q9UHD2 whole entry, looked up): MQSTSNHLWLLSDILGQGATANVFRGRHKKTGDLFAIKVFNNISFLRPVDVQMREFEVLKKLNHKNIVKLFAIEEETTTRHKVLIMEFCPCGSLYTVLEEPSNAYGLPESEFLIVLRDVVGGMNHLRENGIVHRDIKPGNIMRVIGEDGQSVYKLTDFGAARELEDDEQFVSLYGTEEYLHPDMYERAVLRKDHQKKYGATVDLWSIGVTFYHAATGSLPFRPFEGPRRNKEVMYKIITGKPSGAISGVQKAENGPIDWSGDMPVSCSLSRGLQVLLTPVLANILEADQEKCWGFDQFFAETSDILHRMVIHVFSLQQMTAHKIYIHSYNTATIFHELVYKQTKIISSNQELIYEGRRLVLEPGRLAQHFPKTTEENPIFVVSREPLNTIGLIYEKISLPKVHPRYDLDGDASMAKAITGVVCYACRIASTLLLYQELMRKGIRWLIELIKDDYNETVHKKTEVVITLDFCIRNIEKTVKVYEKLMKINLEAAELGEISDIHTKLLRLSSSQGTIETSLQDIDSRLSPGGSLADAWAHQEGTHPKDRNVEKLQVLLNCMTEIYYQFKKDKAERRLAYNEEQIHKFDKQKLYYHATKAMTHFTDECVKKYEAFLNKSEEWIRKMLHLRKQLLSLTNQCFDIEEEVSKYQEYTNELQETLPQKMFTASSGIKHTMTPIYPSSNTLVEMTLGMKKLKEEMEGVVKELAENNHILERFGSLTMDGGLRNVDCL
Chain of Protein cereblon/Bromodomain-containing protein 4 (Q96SW2 whole entry, looked up, other chains not shown): as the sequence (Q96SW2 whole entry, looked up) above
Chain of Protein cereblon/Steroid hormone receptor ERR1 (Homo sapiens) (P11474 whole entry, looked up): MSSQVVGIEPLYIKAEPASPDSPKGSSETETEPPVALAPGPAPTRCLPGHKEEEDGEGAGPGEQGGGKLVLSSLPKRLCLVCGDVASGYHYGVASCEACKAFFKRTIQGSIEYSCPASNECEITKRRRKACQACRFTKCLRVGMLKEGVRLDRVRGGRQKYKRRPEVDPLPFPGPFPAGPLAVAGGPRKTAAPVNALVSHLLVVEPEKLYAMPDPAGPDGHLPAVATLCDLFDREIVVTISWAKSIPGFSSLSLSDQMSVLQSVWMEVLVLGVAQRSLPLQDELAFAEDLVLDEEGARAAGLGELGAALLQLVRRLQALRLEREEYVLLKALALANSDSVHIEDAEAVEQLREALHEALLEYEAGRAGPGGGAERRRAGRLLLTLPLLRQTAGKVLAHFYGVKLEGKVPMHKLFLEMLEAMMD
Chain of Protein cereblon/Steroid hormone receptor ERR1 (Homo sapiens) (Q96SW2 whole entry, looked up): as the sequence (Q96SW2 whole entry, looked up) above

Take `CN(CCCNc1nc(Nc2ccc(OCCOCCOCCOCCOCCOCCNc3cccc4c3C(=O)N(C3CCC(=O)NC3=O)C4=O)cc2)ncc1Br)C(=O)C1CCC1` (configuration not stated): in experiment [1], the Activity was > 50%.
With `COc1cc(/C=C2\SC(=O)N(CCCOCCNc3cccc4c3C(=O)N(C3CCC(=O)NC3=O)C4=O)C2=O)ccc1Oc1ccc(C#N)cc1C(F)(F)F` (configuration not stated), the Activity in experiment [2] was > 50%.
With `CN(CCCNc1nc(Nc2ccc(OCCOCCOCCOCCOCCNc3cccc4c3C(=O)N(C3CCC(=O)NC3=O)C4=O)cc2)ncc1Br)C(=O)C1CCC1` (configuration not stated), the Activity in experiment [1] is > 50%.
On to `Cc1sc2c(c1C)C(c1ccc(Cl)cc1)=NC(CC(=O)NCCOCCNc1cccc3c1C(=O)N(C1CCC(=O)NC1=O)C3=O)c1nnc(C)n1-2` (configuration not stated), for which the IC50 in experiment [3] was < 50 nM.
On the same count and under the same terms, with `Cc1sc2c(c1C)C(c1ccc(Cl)cc1)=NC(CC(=O)N[C@@H](C)c1ccc(OCCOCCNc3cccc4c3C(=O)N(C3CCC(=O)NC3=O)C4=O)cc1)c1nnc(C)n1-2` (some centres not stated) the figure was < 50 nM.
For `CC1(C)C(=O)N(c2ccc(C#N)c(C(F)(F)F)c2)C(=S)N1c1ccc(-c2ccc(OCCCCCNc3cccc4c3C(=O)N(C3CCC(=O)NC3=O)C4=O)cc2)cc1` (configuration not stated), the Activity in experiment [4] was > 50%.
Regarding `CC1(C)[C@H](NC(=O)c2ccc(OCCCCCOCCCNc3cccc4c3C(=O)N(C3CCC(=O)NC3=O)C4=O)cc2)C(C)(C)[C@H]1Oc1ccc(C#N)c(Cl)c1` (some centres not stated), in experiment [4], the Activity was > 50%.

For orientation: IC50 means the concentration at which inhibition is half-maximal.
